Data on twelve molecules can be found in patent US8030344B2, “Inhibitors of histone deacetylase” (MethylGene Inc., priority 2007, dated 2011).

One assay relates to HCT116 cells. Kind of assay: MTT assay on HCT116 cells. The format is cell-based. The following applies: Homo sapiens, HCT-116; 72 hours incubation; concentration reducing cell numbers to 50% of solvent treated cells. On the procedure:
(§1) HCT116 cells (2000/well) are plated into 96-well tissue culture plates one day before compound treatment. Representative compounds at various concentrations were added to the cells. The cells are incubated for 72 hours at 37° C. in 5% CO2 incubator. MTT (3-[4,5-dimethylthiazol-2-yl]-2,5 diphenyl tetrazolium bromide, Sigma) is added at a final concentration of 0.5 mg/ml and incubated with the cells for 4 hours before one volume of solubilization buffer (50% N,N-dimethylformamide, 20% SDS, pH 4.7) is added onto the cultured cells. After overnight incubation, solubilized dye is quantified by calorimetric reading at 570 nM using a reference at 630 nM. OD values are converted to cell numbers according to a standard growth curve of the relevant cell line. The concentration which reduces cell numbers to 50% of that of solvent treated cells is determined as MTT IC50. A similar assay is performed on HMEC cells.
(In general: Formazan colour is commonly taken as a measure of viable cells.)

For the next assay, the target named is HDAC-2 (Homo sapiens, UniProt Q92769). The assay can be described thus: Similar assay measuring HDAC-2 inhibitory activity. The class given is biochemical. On the procedure:
(§2) The following protocol is used to assay the compounds of the invention. In the assay, the buffer used is 25 mM HEPES, pH 8.0, 137 mM NaCl, 2.7 mM KCl, 1 mM MgCl2 and the substrate is Boc-Lys(Ac)-AMC in a 50 mM stock solution in DMSO. The enzyme stock solution is 4.08 μg/mL in buffer.
(§3) The compounds are pre-incubated (2 μl in DMSO diluted to 13 μl in buffer for transfer to assay plate) with enzyme (20 μl of 4.08 μg/ml) for 10 minutes at room temperature (35 μl pre-incubation volume). The mixture is pre-incubated for 5 minutes at room temperature. The reaction is started by bringing the temperature to 37° C. and adding 15 μl substrate. Total reaction volume is 50 μl. The reaction is stopped after 20 minutes by addition of 50 μl developer, prepared as directed by Biomol (Fluor-de-Lys developer, Cat. # KI-105). A plate is incubated in the dark for 10 minutes at room temperature before reading (λEx=360 nm, λEm=470 nm, Cutoff filter at 435 nm). Similar assays are performed to measure HDAC-2 inhibitory activity

For a further assay, the system named is HMEC cells. Kind of assay: MTT assay on HMEC cells. The format is cell-based. The following applies: Homo sapiens; similar MTT assay on HMEC cells. On the procedure:
as §1

For a further assay, the target named is HDAC-1 (Homo sapiens, UniProt Q13547). The assay can be described thus: Inhibition of histone deacetylase enzymatic (HDAC-1) activity, Boc-Lys(Ac)-AMC fluorescence assay. The format is biochemical. On the procedure:
Inhibition of Histone Deacetylase Enzymatic (HDAC-1) Activity
as §2, §3

Sequence of HDAC-2 (Q92769 whole entry): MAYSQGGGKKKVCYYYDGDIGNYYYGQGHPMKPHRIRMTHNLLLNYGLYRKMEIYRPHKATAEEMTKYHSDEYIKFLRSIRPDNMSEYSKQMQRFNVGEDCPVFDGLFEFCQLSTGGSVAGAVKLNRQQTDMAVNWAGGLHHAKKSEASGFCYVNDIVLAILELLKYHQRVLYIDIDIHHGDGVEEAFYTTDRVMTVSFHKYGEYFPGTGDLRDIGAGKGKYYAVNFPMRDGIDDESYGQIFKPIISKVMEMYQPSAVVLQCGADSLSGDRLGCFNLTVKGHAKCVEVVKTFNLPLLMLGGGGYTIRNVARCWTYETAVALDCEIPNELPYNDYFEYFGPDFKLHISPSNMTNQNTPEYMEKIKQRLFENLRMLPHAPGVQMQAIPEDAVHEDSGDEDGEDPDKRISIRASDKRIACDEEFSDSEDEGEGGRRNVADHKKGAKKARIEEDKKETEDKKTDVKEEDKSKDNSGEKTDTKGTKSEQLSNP
Sequence of HDAC-1 (Q13547 whole entry): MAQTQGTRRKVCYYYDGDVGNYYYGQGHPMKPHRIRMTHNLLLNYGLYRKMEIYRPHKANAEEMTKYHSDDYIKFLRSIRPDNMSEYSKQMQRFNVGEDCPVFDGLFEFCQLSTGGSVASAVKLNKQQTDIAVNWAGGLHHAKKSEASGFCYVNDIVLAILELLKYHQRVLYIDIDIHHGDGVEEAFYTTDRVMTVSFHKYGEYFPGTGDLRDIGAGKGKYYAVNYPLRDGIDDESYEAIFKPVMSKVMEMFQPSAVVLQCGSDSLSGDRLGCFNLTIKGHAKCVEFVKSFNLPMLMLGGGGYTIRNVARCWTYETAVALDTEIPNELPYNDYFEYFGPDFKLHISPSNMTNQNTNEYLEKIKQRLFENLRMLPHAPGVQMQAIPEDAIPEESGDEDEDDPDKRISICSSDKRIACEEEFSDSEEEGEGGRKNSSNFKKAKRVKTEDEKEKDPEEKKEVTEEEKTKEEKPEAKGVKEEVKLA

In the case of `CN(C)CC(=O)N[C@H]1CCN(c2ccc(C(=O)Nc3ccccc3N)cc2)C1` [Compound 141, (S)-N-(2-Aminophenyl)-4-(3-(2-(dimethylamino)acetamido)pyrrolidin-1-yl)benzamide], the IC50 (as a rule, the point on the concentration scale where inhibition reaches its midpoint) is not above 5000 nM with HCT116 cells, not above 5000 nM at HDAC-2, more than 50000 nM with HMEC cells and not above 500 nM on HDAC-1.

As to `Nc1ccccc1NC(=O)c1ccc(N2CC[C@H](NC(=O)OCc3ccncc3)C2)cc1` [Compound 142, (S)-Pyridin-4-ylmethyl 1-(4-(2-aminophenylcarbamoyl)phenyl)pyrrolidin-3-yl carbamate], the IC50 was not above 1000 nM with HCT116 cells, not above 500 nM at HDAC-2, not above 50000 nM in the assay on HMEC cells and not above 100 nM against HDAC-1.

`Nc1ccccc1NC(=O)c1ccc(N2CC[C@H](NC(=O)OCc3ccccn3)C2)cc1` [Compound 143, (S)-Pyridin-2-ylmethyl 1-(4-(2-aminophenylcarbamoyl)phenyl)pyrrolidin-3-yl carbamate]: the IC50 in the assay on HCT116 cells was not above 1000 nM; on HDAC-2, not above 500 nM; in the assay on HMEC cells, not above 50000 nM; against HDAC-1 it was not above 500 nM.

`Nc1ccccc1NC(=O)c1ccc(N2CC[C@H](NC(=O)OCc3ccoc3)C2)cc1` [Compound 145, (S)-Furan-3-ylmethyl 1-(4-(2-aminophenylcarbamoyl)phenyl) pyrrolidin-3-yl carbamate]: the IC50 in the assay on HCT116 cells was not above 500 nM; on HDAC-2 it was not above 500 nM; in the assay with HMEC cells, not above 50000 nM; on HDAC-1, not above 100 nM.

With `COC(=O)N[C@H]1CCN(c2ccc(C(=O)Nc3ccccc3N)cn2)C1` [Compound 155, (S)-Methyl 1-(5-(2-aminophenylcarbamoyl)pyridin-2-yl)pyrrolidin-3-ylcarbamate], the IC50 was not above 5000 nM with HCT116 cells, not above 5000 nM on HDAC-2, not above 50000 nM with HMEC cells and not above 500 nM against HDAC-1.

In the case of `CCOC(=O)N[C@H]1CCN(c2ccc(C(=O)Nc3ccccc3N)cn2)C1` [Compound 156, (S)-Ethyl 1-(5-(2-aminophenylcarbamoyl)pyridin-2-yl)pyrrolidin-3-ylcarbamate], the IC50 in the assay with HCT116 cells is not above 1000 nM; at HDAC-2 it was not above 1000 nM; in the assay with HMEC cells it was not above 50000 nM; at HDAC-1, not above 500 nM.

On to `CCNC(=O)O[C@H]1CCN(c2ccc(C(=O)Nc3ccccc3N)cc2)C1` [Compound 162, (S)-1-(4-(2-Aminophenylcarbamoyl)phenyl)pyrrolidin-3-yl ethyl carbamate], for which the IC50 in the assay with HCT116 cells was not above 5000 nM; against HDAC-2 it was not above 5000 nM; in the assay on HMEC cells, more than 50000 nM; at HDAC-1 it was not above 500 nM.

As to `Nc1ccccc1NC(=O)c1ccc(N2CC[C@H](OC(=S)NCCN3CCOCC3)C2)cc1` [Compound 163, (S)-O-1-(4-(2-Aminophenylcarbamoyl)phenyl)pyrrolidin-3-yl 2-morpholinoethylcarbamothioate], the IC50 in the assay with HCT116 cells is not above 5000 nM; at HDAC-2 it was not above 5000 nM; in the assay on HMEC cells, not above 50000 nM; at HDAC-1, not above 500 nM.

For the molecule `COc1cc(CN(C(=O)OCc2ccccc2)[C@H]2CCN(c3ccc(C(=O)Nc4ccccc4N)cc3)C2)cc(OC)c1OC` [Compound 197, (S)-benzyl 1-(4-(2-aminophenylcarbamoyl)phenyl)-pyrrolidin-3-yl(3,4,5-trimethoxybenzyl)carbamate], the IC50 in the assay on HCT116 cells was not above 1000 nM; against HDAC-2, not above 500 nM; in the assay with HMEC cells it was more than 50000 nM; on HDAC-1, not above 500 nM.

As to `CC(C)OC(=O)N[C@H]1CCN(c2ccc(C(=O)Nc3ccccc3N)cc2)C1` [Compound 198, (S)-isopropyl 1-(4-(2-aminophenylcarbamoyl)phenyl)-pyrrolidin-3-ylcarbamate], the IC50 is not above 1000 nM in the assay with HCT116 cells, not above 500 nM against HDAC-2, not above 50000 nM with HMEC cells and not above 500 nM at HDAC-1.

For the molecule `Nc1ccccc1NC(=O)c1ccc(N2CC[C@H](NC(=O)OCC3CC3)C2)cc1` [Compound 199, (S)-cyclopropylmethyl 1-(4-(2-aminophenylcarbamoyl)phenyl)-pyrrolidin-3-ylcarbamate], the IC50 in the assay with HCT116 cells is not above 500 nM; against HDAC-2 it was not above 500 nM; in the assay on HMEC cells, not above 50000 nM; at HDAC-1, not above 100 nM.

Take `Nc1ccccc1NC(=O)c1ccc(N2CC[C@H](NC(=O)OC3CCOCC3)C2)cc1` [Compound 200, (S)-tetrahydro-2H-pyran-4-yl 1-(4-(2-aminophenylcarbamoyl)phenyl)-pyrrolidin-3-ylcarbamate]: the IC50 is not above 500 nM in the assay with HCT116 cells, not above 500 nM against HDAC-2, more than 50000 nM in the assay with HMEC cells and not above 500 nM against HDAC-1.
